From ChEMBL document CHEMBL1131957, “Structure-activity relationship of a series of diaminoalkyl substituted benzimidazole as neuropeptide Y Y1 receptor antagonists” (Bioorg Med Chem Lett, 1999)

Tests used:
[1] = target: T1, Neuropeptide Y receptor type 1 (Homo sapiens, UniProt P25929); experiment: Ability to displace [125I]-peptide YY binding to cloned human Neuropeptide Y receptor type 1 expressed in AV-12 cells; type: cell-based, AV12
T1 sequence (P25929 whole entry): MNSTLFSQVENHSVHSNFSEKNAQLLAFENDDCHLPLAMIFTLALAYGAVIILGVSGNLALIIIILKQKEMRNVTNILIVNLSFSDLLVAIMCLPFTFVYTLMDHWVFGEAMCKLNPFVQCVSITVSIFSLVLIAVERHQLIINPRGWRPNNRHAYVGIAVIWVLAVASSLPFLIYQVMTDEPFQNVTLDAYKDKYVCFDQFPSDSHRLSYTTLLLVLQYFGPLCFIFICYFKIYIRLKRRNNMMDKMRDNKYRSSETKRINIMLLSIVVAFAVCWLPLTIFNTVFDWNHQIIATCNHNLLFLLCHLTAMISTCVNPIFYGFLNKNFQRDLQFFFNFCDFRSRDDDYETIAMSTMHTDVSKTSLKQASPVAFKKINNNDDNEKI

[2] = target: T2, Neuropeptide Y receptor type 2 (Homo sapiens) (UniProt P49146); experiment: Ability to displace [125I]-peptide YY binding to cloned human Neuropeptide Y receptor type 2 expressed in CHO cells at a concentration of 1 uM; type: cell-based
T2 sequence (whole entry): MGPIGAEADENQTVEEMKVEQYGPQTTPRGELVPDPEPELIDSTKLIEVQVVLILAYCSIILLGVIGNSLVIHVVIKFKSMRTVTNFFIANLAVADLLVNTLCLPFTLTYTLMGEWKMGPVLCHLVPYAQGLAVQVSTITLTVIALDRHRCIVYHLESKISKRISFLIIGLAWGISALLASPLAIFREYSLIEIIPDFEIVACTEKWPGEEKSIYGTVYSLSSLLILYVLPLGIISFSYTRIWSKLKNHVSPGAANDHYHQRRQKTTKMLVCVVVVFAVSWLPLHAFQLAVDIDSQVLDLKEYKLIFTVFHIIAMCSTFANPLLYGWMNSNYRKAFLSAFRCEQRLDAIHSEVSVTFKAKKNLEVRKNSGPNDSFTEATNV

[3] = target: Neuropeptide Y receptor type 4 (Homo sapiens) (UniProt P50391); experiment: Ability to displace [125I]-peptide YY binding to cloned human Neuropeptide Y receptor type 4 expressed in CHO cells at a concentration of 1 uM; type: cell-based
[4] = target: T3, Neuropeptide Y receptor type 5 (Homo sapiens) (UniProt Q15761); experiment: Ability to displace [125I]-peptide YY binding to cloned human Neuropeptide Y receptor type 5 expressed in CHO cells at a concentration of 1 uM; type: cell-based
T3 sequence (whole entry): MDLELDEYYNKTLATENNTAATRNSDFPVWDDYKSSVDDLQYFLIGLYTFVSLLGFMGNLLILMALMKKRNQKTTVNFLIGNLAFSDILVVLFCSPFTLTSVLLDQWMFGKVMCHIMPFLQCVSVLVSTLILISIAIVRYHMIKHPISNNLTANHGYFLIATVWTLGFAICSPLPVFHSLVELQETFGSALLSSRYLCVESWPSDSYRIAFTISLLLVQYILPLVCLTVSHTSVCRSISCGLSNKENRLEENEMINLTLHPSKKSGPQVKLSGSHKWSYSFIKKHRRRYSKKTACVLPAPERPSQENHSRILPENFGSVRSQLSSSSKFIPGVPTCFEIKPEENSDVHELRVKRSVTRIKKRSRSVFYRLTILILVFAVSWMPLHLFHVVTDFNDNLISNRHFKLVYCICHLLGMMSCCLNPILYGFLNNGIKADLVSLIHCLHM

[5] = tested on: SK-N-MC; experiment: Ability to antagonize 1 nM NPY''s inhibition of forskolin-stimulated cyclic AMP accumulation in SK-N-MC cells; type: functional, cell-based, Homo sapiens

Sequence of Neuropeptide Y receptor type 4 (Homo sapiens) (P50391 whole entry): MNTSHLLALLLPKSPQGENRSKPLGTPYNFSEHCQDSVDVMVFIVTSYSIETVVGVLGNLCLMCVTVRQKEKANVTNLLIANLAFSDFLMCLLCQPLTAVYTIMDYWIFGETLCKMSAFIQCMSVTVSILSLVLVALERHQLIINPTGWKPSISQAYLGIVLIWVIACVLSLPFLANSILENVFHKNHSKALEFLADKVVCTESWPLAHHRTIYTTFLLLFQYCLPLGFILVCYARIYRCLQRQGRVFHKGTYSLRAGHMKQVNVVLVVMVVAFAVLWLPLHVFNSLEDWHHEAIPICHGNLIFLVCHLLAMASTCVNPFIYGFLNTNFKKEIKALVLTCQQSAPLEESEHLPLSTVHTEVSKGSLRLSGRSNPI

| Compound | Ki [1] [nM] | also measured |
| --- | --- | --- |
| CC(C)CCN1CCC(CCCn2c(COc3ccccc3)nc3c(OCCCN4CCCCC4)cccc32)CC1 | 0.29 |  |
| Ic1ccc(CCN2CCC(CCCn3c(COc4ccccc4)nc4c(OCCCN5CCCCC5)cccc43)CC2)cc1 | 0.052 | inhibition [2]: < 50%; inhibition [3]: < 50%; inhibition [4]: < 50%; Ki [5]: 6 nM |
| Oc1ccc(CCN2CCC(CCCn3c(COc4ccccc4)nc4c(OCCCN5CCCCC5)cccc43)CC2)cc1 | 0.313 |  |
| CC(C)N1CCC(CCCn2c(COc3ccccc3)nc3c(OCCCN4CCCCC4)cccc32)CC1 | 1.61 |  |
| C(=C/c1ccccc1)/CN1CCC(CCCn2c(COc3ccccc3)nc3c(OCCCN4CCCCC4)cccc32)CC1 | 0.183 |  |
| O=C(CN1CCC(N2CCCCC2)CC1)c1c(COc2ccc(Cl)cc2)n(CCCC2CCCNC2)c2ccccc12 (stereo not given) | 0.75 |  |
| c1ccc(CCN2CCC(CCCn3c(COc4ccccc4)nc4c(OCCCN5CCCCC5)cccc43)CC2)cc1 | 0.191 |  |
| O=C(CCCN1CCC(CCCn2c(COc3ccccc3)nc3c(OCCCN4CCCCC4)cccc32)CC1)c1ccccc1 | 0.132 |  |
| CN1CCC(CCCn2c(COc3ccccc3)nc3c(OCCCN4CCCCC4)cccc32)CC1 | 1.62 |  |
| c1ccc(CCCN2CCC(CCCn3c(COc4ccccc4)nc4c(OCCCN5CCCCC5)cccc43)CC2)cc1 | 0.361 | Ki [5]: 3.4 nM |
| c1ccc(OCc2nc3c(OCCCN4CCCCC4)cccc3n2CCCC2CCNCC2)cc1 | 4.5 |  |
| O=C(CCN1CCC(CCCn2c(COc3ccccc3)nc3c(OCCCN4CCCCC4)cccc32)CC1)c1ccccc1 | 0.112 |  |

Further lines, with some results ahead:

| Ki [1] [nM] | Compound | also measured |
| --- | --- | --- |
| 1.63 | C=CCN1CCC(CCCn2c(COc3ccccc3)nc3c(OCCCN4CCCCC4)cccc32)CC1 |  |
| 0.707 | C=CCCN1CCC(CCCn2c(COc3ccccc3)nc3c(OCCCN4CCCCC4)cccc32)CC1 |  |
| 0.829 | CC(C)CN1CCC(CCCn2c(COc3ccccc3)nc3c(OCCCN4CCCCC4)cccc32)CC1 |  |
| 0.393 | c1ccc(OCc2nc3c(OCCCN4CCCCC4)cccc3n2CCCC2CCN(CC3CCCCC3)CC2)cc1 |  |
| 0.106 | c1ccc(OCc2nc3c(OCCCN4CCCCC4)cccc3n2CCCC2CCN(CCCN3CCCCC3)CC2)cc1 | Ki [5]: 0.564 nM |
| 0.285 | c1ccc(OCc2nc3c(OCCCN4CCCCC4)cccc3n2CCCC2CCN(CCC3CCCCC3)CC2)cc1 | Ki [5]: 5.2 nM |
